Results published in ChEMBL document CHEMBL1201862, “PubChem BioAssay data set” (2004).
One block for each compound: values may come before it. The source made the active and inactive calls.

What was measured:
[1] = biological target: T1, Zinc finger protein mex-5 (Caenorhabditis elegans, UniProt Q9XUB2); experiment: potency of MEX-5 RNA-binding blockers – biochemical, C. elegans, fluorescence polarization, dose response (AID 1960)
T1 sequence (Q9XUB2 whole entry): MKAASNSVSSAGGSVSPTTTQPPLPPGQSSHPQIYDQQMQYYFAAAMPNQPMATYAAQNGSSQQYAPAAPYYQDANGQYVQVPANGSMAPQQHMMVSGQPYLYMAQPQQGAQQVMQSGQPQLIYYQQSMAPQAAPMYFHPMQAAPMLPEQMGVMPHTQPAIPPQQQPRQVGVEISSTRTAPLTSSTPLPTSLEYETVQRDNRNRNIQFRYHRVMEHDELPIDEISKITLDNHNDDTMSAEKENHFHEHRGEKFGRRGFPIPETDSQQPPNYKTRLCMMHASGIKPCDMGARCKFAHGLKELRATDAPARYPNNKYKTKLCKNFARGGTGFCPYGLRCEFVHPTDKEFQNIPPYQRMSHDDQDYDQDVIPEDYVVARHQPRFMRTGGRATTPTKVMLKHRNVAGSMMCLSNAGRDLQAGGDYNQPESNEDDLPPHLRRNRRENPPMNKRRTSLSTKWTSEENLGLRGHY

[2] = biological target: Glucose-6-phosphate 1-dehydrogenase (Homo sapiens, UniProt P11413); experiment: inhibition of Homo sapiens G6PD, dose series – biochemical, fluorescence, selectivity assay for P. falciparum G6PD inhibitor project, dose response (AID 504792); type: functional
Chain of Glucose-6-phosphate 1-dehydrogenase (P11413 whole entry): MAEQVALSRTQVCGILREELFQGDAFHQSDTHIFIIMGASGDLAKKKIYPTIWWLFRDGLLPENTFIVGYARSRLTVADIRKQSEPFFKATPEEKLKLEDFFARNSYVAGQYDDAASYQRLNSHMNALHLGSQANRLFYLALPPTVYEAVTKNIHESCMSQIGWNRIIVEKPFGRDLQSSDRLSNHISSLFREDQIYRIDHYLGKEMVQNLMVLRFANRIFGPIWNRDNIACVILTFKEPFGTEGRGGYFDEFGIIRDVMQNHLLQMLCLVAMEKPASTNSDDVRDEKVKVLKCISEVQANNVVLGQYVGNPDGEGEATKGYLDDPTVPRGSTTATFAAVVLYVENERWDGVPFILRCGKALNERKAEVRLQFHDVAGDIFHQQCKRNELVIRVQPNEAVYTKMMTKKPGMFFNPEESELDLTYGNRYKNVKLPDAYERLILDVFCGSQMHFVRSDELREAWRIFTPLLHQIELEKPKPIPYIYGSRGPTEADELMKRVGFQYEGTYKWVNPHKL

[3] = biological target: T2, Rac GTPase-activating protein 1 (Homo sapiens, UniProt Q9H0H5); experiment: blockers of MgcRacGAP-driven Rac1 GTP hydrolysis – biochemical, ADP Hunter fluorescence, primary and confirmatory, confirmation (AID 624330); type: functional
T2 sequence (Q9H0H5 whole entry): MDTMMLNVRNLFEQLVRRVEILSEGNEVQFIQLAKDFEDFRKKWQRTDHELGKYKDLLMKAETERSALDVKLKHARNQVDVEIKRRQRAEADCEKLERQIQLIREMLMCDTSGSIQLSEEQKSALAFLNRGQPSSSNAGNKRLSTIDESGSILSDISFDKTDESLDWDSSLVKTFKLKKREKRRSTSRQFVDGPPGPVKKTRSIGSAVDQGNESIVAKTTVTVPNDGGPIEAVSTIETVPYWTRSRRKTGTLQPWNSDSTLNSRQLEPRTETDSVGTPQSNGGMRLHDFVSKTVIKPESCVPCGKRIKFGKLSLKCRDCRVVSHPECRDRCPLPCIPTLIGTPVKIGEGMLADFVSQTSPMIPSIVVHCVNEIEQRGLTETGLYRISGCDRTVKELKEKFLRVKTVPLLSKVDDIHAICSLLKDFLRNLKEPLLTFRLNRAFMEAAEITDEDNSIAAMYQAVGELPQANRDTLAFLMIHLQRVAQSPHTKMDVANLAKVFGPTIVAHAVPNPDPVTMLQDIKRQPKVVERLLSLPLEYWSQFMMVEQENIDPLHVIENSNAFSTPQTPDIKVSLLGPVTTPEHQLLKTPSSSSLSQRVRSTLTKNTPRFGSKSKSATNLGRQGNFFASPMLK

[4] = biological target: T3, RNA-binding protein pos-1 (Caenorhabditis elegans, UniProt G5EF15); experiment: disruptors of C. elegans POS-1 RNA interaction – biochemical, fluorescence polarization, dose response (AID 1964);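 also: purified POS-1 fused to maltose binding protein made in E. coli; potency of compounds blocking POS-1 binding to fluorescent RNA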
T3 sequence (G5EF15 whole entry): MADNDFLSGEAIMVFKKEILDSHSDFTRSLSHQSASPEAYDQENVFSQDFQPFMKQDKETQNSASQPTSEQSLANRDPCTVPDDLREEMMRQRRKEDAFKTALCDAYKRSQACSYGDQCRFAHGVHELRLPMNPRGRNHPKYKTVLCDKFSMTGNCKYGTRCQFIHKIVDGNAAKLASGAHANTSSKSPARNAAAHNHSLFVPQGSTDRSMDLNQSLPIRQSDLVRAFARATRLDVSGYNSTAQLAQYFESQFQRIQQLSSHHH

[5] = biological target: Peroxisome proliferator-activated receptor gamma/Nuclear receptor coactivator 1 (Homo sapiens, UniProt P37231); experiment: TR-FRET dose response biochemical High Throughput Screening assay for agonists of the steroid receptor coactivator 1 (SRC-1) recruitment by the peroxisome proliferator-activated receptor gamma (PPAR gamma): non-selective agonists. [Related pubchem assays (depositor defined):AID1300, AID1808, AID504735, AID631]; type: protein assay
Chain of Peroxisome proliferator-activated receptor gamma/Nuclear receptor coactivator 1 (P37231 whole entry): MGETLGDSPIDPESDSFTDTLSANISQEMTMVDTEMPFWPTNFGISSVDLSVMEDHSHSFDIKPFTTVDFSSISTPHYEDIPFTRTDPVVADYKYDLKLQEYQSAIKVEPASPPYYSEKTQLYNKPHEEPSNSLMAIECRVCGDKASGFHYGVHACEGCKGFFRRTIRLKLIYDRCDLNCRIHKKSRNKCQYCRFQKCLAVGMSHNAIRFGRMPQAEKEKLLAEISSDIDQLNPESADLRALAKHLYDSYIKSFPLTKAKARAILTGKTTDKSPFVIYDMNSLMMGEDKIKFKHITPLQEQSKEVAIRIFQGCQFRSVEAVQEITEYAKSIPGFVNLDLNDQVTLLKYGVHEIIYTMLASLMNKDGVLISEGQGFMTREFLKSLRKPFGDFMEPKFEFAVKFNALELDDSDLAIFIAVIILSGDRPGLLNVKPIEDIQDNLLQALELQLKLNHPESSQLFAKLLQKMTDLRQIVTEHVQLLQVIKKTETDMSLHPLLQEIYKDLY
Chain of Peroxisome proliferator-activated receptor gamma/Nuclear receptor coactivator 1 (Q15788 whole entry, further chain): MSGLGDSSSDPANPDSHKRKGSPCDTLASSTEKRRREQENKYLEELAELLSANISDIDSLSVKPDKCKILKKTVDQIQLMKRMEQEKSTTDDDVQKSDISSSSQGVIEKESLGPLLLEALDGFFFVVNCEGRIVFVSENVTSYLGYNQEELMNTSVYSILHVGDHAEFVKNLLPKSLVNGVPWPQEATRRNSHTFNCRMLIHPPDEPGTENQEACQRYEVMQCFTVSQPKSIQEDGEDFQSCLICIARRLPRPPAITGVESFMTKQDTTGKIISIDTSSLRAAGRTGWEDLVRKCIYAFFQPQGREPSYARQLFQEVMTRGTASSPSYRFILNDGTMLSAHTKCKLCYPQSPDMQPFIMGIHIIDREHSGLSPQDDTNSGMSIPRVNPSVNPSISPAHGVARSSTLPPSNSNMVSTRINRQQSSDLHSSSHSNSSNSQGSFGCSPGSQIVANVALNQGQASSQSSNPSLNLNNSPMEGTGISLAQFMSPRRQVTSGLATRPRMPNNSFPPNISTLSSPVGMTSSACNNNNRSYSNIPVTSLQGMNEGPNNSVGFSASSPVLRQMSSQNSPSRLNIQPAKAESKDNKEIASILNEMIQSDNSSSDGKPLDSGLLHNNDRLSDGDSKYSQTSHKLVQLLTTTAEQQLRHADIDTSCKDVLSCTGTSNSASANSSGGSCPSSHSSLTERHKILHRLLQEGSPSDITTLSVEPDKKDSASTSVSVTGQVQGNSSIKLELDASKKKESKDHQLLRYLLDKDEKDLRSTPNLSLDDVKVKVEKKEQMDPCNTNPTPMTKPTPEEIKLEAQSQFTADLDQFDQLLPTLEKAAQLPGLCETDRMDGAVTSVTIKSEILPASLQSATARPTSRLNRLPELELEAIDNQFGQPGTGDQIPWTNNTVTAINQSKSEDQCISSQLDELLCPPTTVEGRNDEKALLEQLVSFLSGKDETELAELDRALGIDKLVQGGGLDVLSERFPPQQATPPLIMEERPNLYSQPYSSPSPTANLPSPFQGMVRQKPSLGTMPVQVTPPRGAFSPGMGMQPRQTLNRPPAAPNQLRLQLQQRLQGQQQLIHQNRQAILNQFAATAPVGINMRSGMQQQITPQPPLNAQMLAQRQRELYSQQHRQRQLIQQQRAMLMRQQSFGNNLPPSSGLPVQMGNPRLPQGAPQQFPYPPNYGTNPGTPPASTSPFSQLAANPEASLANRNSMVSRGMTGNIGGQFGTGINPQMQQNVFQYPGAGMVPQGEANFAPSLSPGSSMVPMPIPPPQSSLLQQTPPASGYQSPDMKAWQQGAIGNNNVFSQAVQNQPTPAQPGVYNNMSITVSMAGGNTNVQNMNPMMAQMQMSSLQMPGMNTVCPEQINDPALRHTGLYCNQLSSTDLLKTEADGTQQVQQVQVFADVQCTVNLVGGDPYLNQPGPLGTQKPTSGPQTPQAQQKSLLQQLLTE

Large T antigen = Large T antigen (Simian virus 40, UniProt P03070); type: functional, Betapolyomavirus macacae;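 also: Confirmatory-stage PubChem screen for compounds that inhibit SV40 T antigen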
Chain of Large T antigen (P03070 whole entry): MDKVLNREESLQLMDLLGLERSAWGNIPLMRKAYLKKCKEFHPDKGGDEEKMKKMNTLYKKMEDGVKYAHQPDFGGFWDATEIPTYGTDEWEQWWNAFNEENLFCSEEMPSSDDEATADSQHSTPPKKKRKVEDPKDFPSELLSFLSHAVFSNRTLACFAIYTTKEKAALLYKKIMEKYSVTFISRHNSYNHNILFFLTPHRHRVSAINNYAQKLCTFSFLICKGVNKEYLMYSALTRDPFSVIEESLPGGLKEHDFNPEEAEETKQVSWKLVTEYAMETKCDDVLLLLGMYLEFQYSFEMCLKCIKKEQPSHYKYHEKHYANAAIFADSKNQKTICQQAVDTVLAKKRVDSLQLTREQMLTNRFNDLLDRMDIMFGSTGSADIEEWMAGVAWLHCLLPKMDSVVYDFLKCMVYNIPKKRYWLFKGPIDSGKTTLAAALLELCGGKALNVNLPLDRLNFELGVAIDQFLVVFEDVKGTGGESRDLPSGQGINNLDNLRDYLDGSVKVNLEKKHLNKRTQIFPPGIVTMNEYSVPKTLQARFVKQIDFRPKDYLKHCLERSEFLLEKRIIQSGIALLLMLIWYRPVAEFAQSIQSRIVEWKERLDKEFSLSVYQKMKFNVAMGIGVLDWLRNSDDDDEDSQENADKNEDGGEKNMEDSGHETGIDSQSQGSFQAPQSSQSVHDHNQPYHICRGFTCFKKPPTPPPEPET

[6] = biological target: Peroxisome proliferator-activated receptor gamma/Nuclear receptor coactivator 2 (Homo sapiens, UniProt P37231); experiment: (§1) TR-FRET dose response biochemical High Throughput Screening assay for agonists of the steroid receptor coactivator 2 (SRC-2) recruitment by the peroxisome proliferator-activated receptor gamma (PPAR gamma): non-selective agonists. [Related pubchem assays: 1297, 1032 ]; type: functional
[7] = biological target: Peroxisome proliferator-activated receptor gamma/Nuclear receptor coactivator 3 (Homo sapiens, UniProt P37231); experiment: as §1, with “3 (SRC-3)” for “2 (SRC-2)”, “1301 (Confirmation screen.), 1048 (Primary screen.)]” for “1297, 1032 ]”; type: functional
Cytochrome P450 2D6 = Cytochrome P450 2D6 (Homo sapiens, UniProt P10635);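 also: CYP2D6 member of a cytochrome P450 panel assay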
Chain of Cytochrome P450 2D6 (P10635 whole entry): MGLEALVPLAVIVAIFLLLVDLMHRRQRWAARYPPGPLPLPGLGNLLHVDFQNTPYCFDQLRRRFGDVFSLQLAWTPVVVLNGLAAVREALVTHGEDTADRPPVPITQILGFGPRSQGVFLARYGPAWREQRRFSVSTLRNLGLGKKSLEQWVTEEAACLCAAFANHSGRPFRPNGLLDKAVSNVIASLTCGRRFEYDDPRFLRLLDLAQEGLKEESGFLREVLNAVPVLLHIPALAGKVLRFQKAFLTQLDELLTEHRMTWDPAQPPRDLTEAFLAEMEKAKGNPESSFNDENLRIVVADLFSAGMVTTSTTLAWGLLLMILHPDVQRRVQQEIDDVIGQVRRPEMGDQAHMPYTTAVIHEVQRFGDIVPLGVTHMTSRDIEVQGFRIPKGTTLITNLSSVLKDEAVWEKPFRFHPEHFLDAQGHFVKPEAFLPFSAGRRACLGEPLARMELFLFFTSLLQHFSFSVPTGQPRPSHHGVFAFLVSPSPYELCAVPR

Cytochrome P450 2C9 = Cytochrome P450 2C9 (Homo sapiens, UniProt P11712)
[8] = biological target: DNA dC->dU-editing enzyme APOBEC-3A (Homo sapiens, UniProt P31941); experiment: Dose Response confirmation of small molecule APOBEC3A DNA Deaminase Inhibitors via a fluorescence-based single-stranded DNA deaminase assay. [Related pubchem assays (depositor defined):AID493011, AID493024]; type: functional
Chain of DNA dC->dU-editing enzyme APOBEC-3A (P31941 whole entry): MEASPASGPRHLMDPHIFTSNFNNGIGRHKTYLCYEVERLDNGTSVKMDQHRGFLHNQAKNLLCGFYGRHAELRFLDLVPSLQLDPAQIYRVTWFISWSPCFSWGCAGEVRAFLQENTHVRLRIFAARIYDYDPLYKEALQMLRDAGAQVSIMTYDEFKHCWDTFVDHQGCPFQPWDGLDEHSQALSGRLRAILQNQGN

[9] = biological target: DNA dC->dU-editing enzyme APOBEC-3G (Homo sapiens, UniProt Q9HC16); type: functional;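 also: Dose-response counterscreen measuring inhibition of APOBEC3G DNA deaminase activity, run while confirming APOBEC3A inhibitors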
Chain of DNA dC->dU-editing enzyme APOBEC-3G (Q9HC16 whole entry): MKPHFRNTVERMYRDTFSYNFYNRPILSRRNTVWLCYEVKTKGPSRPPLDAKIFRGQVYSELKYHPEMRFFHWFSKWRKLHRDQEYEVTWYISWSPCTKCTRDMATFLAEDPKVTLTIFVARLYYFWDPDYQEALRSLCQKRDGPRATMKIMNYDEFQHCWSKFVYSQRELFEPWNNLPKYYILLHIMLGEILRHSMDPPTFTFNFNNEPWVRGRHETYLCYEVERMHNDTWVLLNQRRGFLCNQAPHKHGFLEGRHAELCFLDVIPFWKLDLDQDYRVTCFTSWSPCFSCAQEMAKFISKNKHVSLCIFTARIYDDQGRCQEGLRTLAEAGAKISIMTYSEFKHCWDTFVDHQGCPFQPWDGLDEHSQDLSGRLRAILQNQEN

HeLa = experiment: ATP-based viability loss in HeLa cells – cell-based, CellTiter-Glo luminescence, cherry-pick samples, cytotoxicity control for MITF activator project, dose response (AID 540259); type: functional; conditions: Homo sapiens
[10] = viability of uninfected HEp-2 cells – cell-based, HTS, cytotoxicity control for RSV inhibitor project, dose response (AID 2410); type: functional; conditions: human respiratory syncytial virus
[11] = biological target: T4, Alkaline phosphatase, tissue-nonspecific isozyme (Homo sapiens, UniProt P05186); experiment: potency against alkaline phosphatase TNAP – biochemical, luminescent, dose response, SAR follow-up (AID 1056)
T4 sequence (P05186 whole entry): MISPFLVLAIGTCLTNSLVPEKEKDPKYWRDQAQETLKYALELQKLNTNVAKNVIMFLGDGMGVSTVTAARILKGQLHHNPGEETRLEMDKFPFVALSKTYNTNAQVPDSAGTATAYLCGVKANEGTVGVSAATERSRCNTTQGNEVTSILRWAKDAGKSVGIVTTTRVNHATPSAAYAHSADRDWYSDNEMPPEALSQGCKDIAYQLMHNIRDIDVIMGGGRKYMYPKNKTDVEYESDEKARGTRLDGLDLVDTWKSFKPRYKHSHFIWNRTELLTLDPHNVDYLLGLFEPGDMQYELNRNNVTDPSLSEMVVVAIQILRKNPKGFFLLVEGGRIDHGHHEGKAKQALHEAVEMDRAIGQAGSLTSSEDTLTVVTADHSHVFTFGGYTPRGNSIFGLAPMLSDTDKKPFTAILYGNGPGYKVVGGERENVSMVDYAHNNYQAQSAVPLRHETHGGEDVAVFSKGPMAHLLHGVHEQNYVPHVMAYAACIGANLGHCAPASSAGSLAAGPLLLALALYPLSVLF

[12] = biological target: Alkaline phosphatase, placental type (Homo sapiens, UniProt P05187); experiment: human placental alkaline phosphatase inhibition – biochemical, luminescence, confirmation (AID 1512); type: functional
Chain of Alkaline phosphatase, placental type (P05187 whole entry): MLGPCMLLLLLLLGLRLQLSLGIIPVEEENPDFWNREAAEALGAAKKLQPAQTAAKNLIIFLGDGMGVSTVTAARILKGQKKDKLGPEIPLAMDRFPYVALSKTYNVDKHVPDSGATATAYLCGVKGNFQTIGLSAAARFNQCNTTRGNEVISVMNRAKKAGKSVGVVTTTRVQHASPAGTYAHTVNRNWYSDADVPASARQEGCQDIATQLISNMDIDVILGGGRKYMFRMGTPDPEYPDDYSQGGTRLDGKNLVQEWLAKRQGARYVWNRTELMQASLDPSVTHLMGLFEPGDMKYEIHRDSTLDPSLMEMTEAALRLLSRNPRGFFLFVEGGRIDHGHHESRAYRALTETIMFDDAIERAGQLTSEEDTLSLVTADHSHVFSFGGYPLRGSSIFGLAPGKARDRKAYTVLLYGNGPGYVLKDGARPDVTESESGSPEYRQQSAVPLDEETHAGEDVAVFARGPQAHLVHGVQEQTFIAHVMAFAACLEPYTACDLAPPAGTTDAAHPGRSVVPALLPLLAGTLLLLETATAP

[13] = biological target: FAD-linked sulfhydryl oxidase ALR (Homo sapiens, UniProt P55789); experiment: ALR-catalysed DTT oxidation blockers – biochemical, H2O2 detection, luminescence, cherry-pick, dose response (AID 493248)
Chain of FAD-linked sulfhydryl oxidase ALR (P55789 whole entry): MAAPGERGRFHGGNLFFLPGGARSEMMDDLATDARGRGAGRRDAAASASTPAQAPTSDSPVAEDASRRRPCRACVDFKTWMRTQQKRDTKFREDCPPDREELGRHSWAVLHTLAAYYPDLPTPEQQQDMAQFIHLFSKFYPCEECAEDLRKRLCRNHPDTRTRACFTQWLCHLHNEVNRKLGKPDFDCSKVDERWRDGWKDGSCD

SMILES: CC1N(C)c2cccc3cccc(c23)N1C
- EC50 [1]: > 300 µM (inconclusive)
- IC50 [2]: > 80 µM (inactive)
- IC50 [3]: 25 µM (active)
- EC50 [4]: > 300 µM (not active)

SMILES: O=C(NCc1ccc2c(c1)OCO2)c1cc(-n2cnnc2)ccc1Cl
- IC50 [8]: 1.64 µM (active)
- IC50 [9]: 2.44 µM (active)

SMILES: CC(C)Nc1oc(-c2cccc3ccccc23)nc1C#N
- AC50 (HeLa): 76.7 µM (active)

SMILES: CC1CCN(C(=O)c2ncn(C)c2C(=O)N2CCC(C)CC2)CC1
- IC50 [8]: 2.34 µM (active)
- IC50 [9]: 2.83 µM (active)

SMILES: CN(C)S(=O)(=O)c1ccc(C(=O)NCC[N+]2(C)CCCCCC2)o1
- IC50 [8]: 1.89 µM (active)
- IC50 [9]: 4.08 µM (active)

More lines, main results first:

- EC50 [5]: > 79.4 µM (inactive)
- IC50 (Large T antigen): 38.8 µM (active)
- EC50 [6]: > 79.4 µM (not active)
- EC50 [7]: > 79.4 µM (not active)
SMILES: O=c1oc2cc(O)ccc2c2ccccc12

- AC50 (Cytochrome P450 2D6): inconclusive
- AC50 (Cytochrome P450 2C9): 10 µM (inconclusive)
SMILES: COc1ccc(C(=O)CN(C(=O)c2ccc(Cl)cc2)N2C(=O)c3ccccc3C2=O)cc1

- IC50 [11]: 0.23 µM (active)
- IC50 [12]: > 100 µM (inactive)
SMILES: Cc1cc(O)oc2nnc(-c3ccccc3)c1-2
- CC50 [10]: 34.3 µM (active)

- IC50 [11]: 59.6 µM (active)
- IC50 [12]: 2.37 µM (active)
- AC50 [13]: 4.4 µM (active)
SMILES: Cc1nccn1CC(=O)c1ccc(O)c(O)c1

- IC50 [11]: > 100 µM (inactive)
- IC50 [12]: 44.4 µM (active)
SMILES: O=C(NCCc1ccc(O)c(O)c1)C1CCCO1 (stereo not given)
